Assays:
[1] = Chronic toxicity: peritheric blood and internals, 30 days, rabbits; type: in vivo; conditions: once daily for 30 days
Procedure: (§1) II.1 The H-Ile-Glu-Trp-OH effect on the composition and properties of the peritheric blood, the morphological state of the internals.
(§2) The drug was injected once daily for 30 days.
(§3) The test animals were 20 rabbits and 40 guinea pigs.

[2] = Chronic toxicity: peritheric blood and internals, 30 days, guinea pigs; type: in vivo; conditions: once daily for 30 days
Procedure: as §1, §2, §3

[3] = tested on: CFU-S-8 and CFU-S-12; assay: Cytostatic (Cytosine-Arabinoside)-induced cytopenia: karyocytes, CFU-S-8, CFU-S-12 in bone marrow; type: in vivo, mice; conditions: donor bone marrow; CA 20 mg/kg i.p. once; N 10 μg/kg once daily, three injections
Procedure: Used as a cytostatic, Cytosine-Arabinoside (CA) was intraperitoneally injected to donor mice once in the dose of 20 mg/kg. The peptide was given according to the following scheme: 10 μg/kg once daily, three injections starting from the first hour after CA. Intact mice received H-Ile-Glu-Trp-OH in the same doses and according to the same schedule. On day 8 after the cytostatic injection, determined were karyocyte count in the donor bone marrow and the content of hemopoietic progenitors of different polipotencies: committed CFU-S-8 and CFU-S-12. CFU-8 are committed stem cells which later undergo differentiation. CFU-12 are the polypotent cells, from which stem cells can be recruited (i.e. they maintain the pool of stem cells). This is a slowly proliferating cell population, mainly in G phase. That is why it is important to evaluate the effect of a preparation on the pools of both committed (CFU-8) and polypotent (CFU- 12) cells. To this end, bone marrow was extracted from donor's femoral bones and injected to lethally irradiated recipients. After the cell injections, every test group was divided into 2 subgroups: some animals were killed on day 8, the other on day 12. Spleens were taken out and the colonies were counted. The tests were carried out on 105 mice.

[4] = Effect on liver function; type: in vivo, rabbits; conditions: 0.01% solution for 30 days
Procedure: The tests were performed in 20 rabbits, who received injections of 0.01% H-Ile-Glu-Trp-OH solution for 30 days.

[5] = Effect on arterial pressure, cats; type: in vivo
Excerpt: The effects of H-Ile-Glu-Trp-OH on ECG and arterial pressure were studied in guinea pigs and cats.
The influence of H-Ile-Glu-Trp-OH on arterial pressure was studied in 10 cats.

[6] = Toxicity study: single 0.15 g/kg or 10 μg/kg for 5 days, cellular systems on day 14; type: in vivo, male mice
Procedure: To determine the peptide toxicity, male mice received single injections of the peptide in the dose of 0.15 g per kg body weight, which was 15,000 times as large as the therapeutic dose with favourable effect in post-irradiation regeneration of hemopoietic progenitors. The second group of mice received daily peptide injections in the dose of 10 μg/kg (the therapeutical dose) for 5 days. […] On the 14-th day after the peptide injection 10 mice from each group were killed to determine the condition of their cellular systems. Nucleated cells were counted in spleen and thymus (per mg of organ weight), bone marrow, blood (per ml). Erythrocyte count and hemoglobin level were determined.

[7] = tested on: nucleated blood cells; assay: Nucleated blood cells and lymphocytes in irradiated mice (4 Gy), scheme 1; type: in vivo; design: Lymphocytes (absolute) in blood: unit not given here; conditions: for Karyocyte Count in Blood: scheme 1, 10 μg/kg i.m.
Procedure: Irradiated mice (4 Gy) received intramuscular injections of the peptide in the dose of 10 μg/kg according to 2 schemes.
a) Scheme 1: mice received the peptide immediately after irradiation, daily. […] Blood samples were taken four hours after the last peptide injection and on the 7th, 10th, and 16th day after the irradiation. Determined were total count of nucleated blood cells (NC) and lymphocyte percentage of them; nucleated cells and the CFU-S population in femoral bone marrow were counted on the 4th, 8th, and the 14th day.

[8] = 10 mcg/kg × 5 injections, day 14

H-Ile-Glu-Trp-OH
pathologic changes in the body or peritheric blood [1]: did not cause any pathologic changes | pathologic changes in the body or peritheric blood [2]: did not cause any pathologic changes | Day 8 COUNT CFU-S-8 [3]: 2805 ± 232 | Day 8 COUNT CFU-S-12 [3]: 2930 ± 152 | Day 8 COUNT Karyocytes [3]: 23.0 ± 0.9 × 10^6 | liver function [4]: not to have any toxic effect on the liver function | ECG readings and arterial pressure [5]: No significant difference from control | Survival for 30 days ([6]; 10 μg/kg daily for 5 days): Not an animal died | Karyocyte Count, Spleen ([6]; 0.15 g/kg, day 14): 2280 ± 30 10^3 /mg | Karyocyte Count, Thymus ([6]; 0.15 g/kg, day 14): 3030 ± 250 10^3 /mg | erythrocyte ([6]; 0.15 g/kg, day 14): 8100 ± 600 10^3 | hemoglobin ([6]; 0.15 g/kg, day 14): 10.8 ± 0.7 g/dL | karyocyte count bone marrow ([6]; 0.15 g/kg, day 14): 2.39 ± 0.25 × 10^7 /femur | karyocytes % ([6]; 0.15 g/kg, day 14): 62.0 ± 3.4% | karyocytes (blood) ([6]; 0.15 g/kg, day 14): 5.4 ± 0.7 10^3 | karyocytes absolute ([6]; 0.15 g/kg, day 14): 3348 | weight ([6]; 0.15 g/kg, day 14): 21-22.0 | Karyocyte Count, Spleen [6, 8]: 1760 ± 100 10^3 /mg | Karyocyte Count, Thymus [6, 8]: 2780 ± 340 10^3 /mg | erythrocyte [6, 8]: 8400 ± 200 10^3 | hemoglobin [6, 8]: 11.5 ± 0.2 g/dL | karyocyte count bone marrow [6, 8]: 1.94 ± 0.2 × 10^7 /femur | karyocytes % [6, 8]: 58.6 ± 3.6% | karyocytes (blood) [6, 8]: 10.1 ± 0.8 10^3 | weight [6, 8]: 21-22.5 | LD50 ([6]; not found): > 15,000 as large as the therapeutical one | growth of average weight by the end of the study ([6]; same as in control): 2 g | Survival for 30 days ([6]; single injection 0.15 g per kg): Not an animal died | Survival ([7]; scheme 1 (footnote of Table 7)): 100% | Karyocyte Count in Blood ([7]; 1 Time, Day 4): 0.80 ± 0.5 × 10^3 /lmm^3 | Karyocyte Count in Blood ([7]; 1 Time, Day 7): 3.53 ± 0.5 × 10^3 /lmm^3 | Karyocyte Count in Blood ([7]; 1 Time, Day 10): 4.30 ± 0.3 × 10^3 /lmm^3 | Karyocyte Count in Blood ([7]; 1 Time, Day 16): 4.49 ± 0.8 × 10^3 /lmm^3 | Karyocyte Count in Blood ([7]; 2 Times, Day 4): 1.30 ± 0.2 × 10^3 /lmm^3 | Karyocyte Count in Blood ([7]; 2 Times, Day 7): 3.64 ± 0.6 × 10^3 /lmm^3 | Karyocyte Count in Blood ([7]; 2 Times, Day 10): 6.42 ± 0.7 × 10^3 /lmm^3 | Karyocyte Count in Blood ([7]; 2 Times, Day 16): 5.96 ± 1.0 × 10^3 /lmm^3 | Karyocyte Count in Blood ([7]; 3 Times, Day 4): 1.19 ± 0.1 × 10^3 /lmm^3 | Karyocyte Count in Blood ([7]; 3 Times, Day 7): 5.58 ± 0.7 × 10^3 /lmm^3 | Karyocyte Count in Blood ([7]; 3 Times, Day 10): 4.18 ± 0.8 × 10^3 /lmm^3 | Karyocyte Count in Blood ([7]; 3 Times, Day 16): 6.32 ± 0.7 × 10^3 /lmm^3 | Karyocyte Count in Blood ([7]; 4 Times, Day 4): 1.64 ± 0.2 × 10^3 /lmm^3 | Karyocyte Count in Blood ([7]; 4 Times, Day 7): 4.14 ± 0.8 × 10^3 /lmm^3 | Karyocyte Count in Blood ([7]; 4 Times, Day 10): 4.90 ± 0.7 × 10^3 /lmm^3 | Karyocyte Count in Blood ([7]; 4 Times, Day 16): 7.32 ± 1.0 × 10^3 /lmm^3 | Lymphocytes (absolute) in blood ([7]; scheme 1, 1 Time, Day 4): 232 | Lymphocytes, % in blood ([7]; scheme 1, 1 Time, Day 4): 29.0 ± 2.5% | Lymphocytes (absolute) in blood ([7]; scheme 1, 1 Time, Day 7): 1365 | Lymphocytes, % in blood ([7]; scheme 1, 1 Time, Day 7): 38.8 ± 3.1% | Lymphocytes (absolute) in blood ([7]; scheme 1, 1 Time, Day 10): 1118 | Lymphocytes, % in blood ([7]; scheme 1, 1 Time, Day 10): 26.3 ± 2.9% | Lymphocytes (absolute) in blood ([7]; scheme 1, 1 Time, Day 16): 2412 | Lymphocytes, % in blood ([7]; scheme 1, 1 Time, Day 16): 53.6 ± 6.0% | Lymphocytes (absolute) in blood ([7]; scheme 1, 2 Times, Day 4): 468 | Lymphocytes, % in blood ([7]; scheme 1, 2 Times, Day 4): 36.0 ± 1.7% | Lymphocytes (absolute) in blood ([7]; scheme 1, 2 Times, Day 7): 1260 | Lymphocytes, % in blood ([7]; scheme 1, 2 Times, Day 7): 34.8 ± 2.1% | Lymphocytes (absolute) in blood ([7]; scheme 1, 2 Times, Day 10): 1664 | Lymphocytes, % in blood ([7]; scheme 1, 2 Times, Day 10): 25.5 ± 2.7% | Lymphocytes (absolute) in blood ([7]; scheme 1, 2 Times, Day 16): 2682 | Lymphocytes, % in blood ([7]; scheme 1, 2 Times, Day 16): 44.8 ± 6.2% | Lymphocytes (absolute) in blood ([7]; scheme 1, 3 Times, Day 4): 432 | Lymphocytes, % in blood ([7]; scheme 1, 3 Times, Day 4): 36.0 ± 1.3% | Lymphocytes (absolute) in blood ([7]; scheme 1, 3 Times, Day 7): 1512 | Lymphocytes, % in blood ([7]; scheme 1, 3 Times, Day 7): 27.1 ± 1.9% | Lymphocytes (absolute) in blood ([7]; scheme 1, 3 Times, Day 10): 1233 | Lymphocytes, % in blood ([7]; scheme 1, 3 Times, Day 10): 29.5 ± 3.6% | Lymphocytes (absolute) in blood ([7]; scheme 1, 3 Times, Day 16): 2853 | Lymphocytes, % in blood ([7]; scheme 1, 3 Times, Day 16): 44.8 ± 4.80% | Lymphocytes (absolute) in blood ([7]; scheme 1, 4 Times, Day 4): 639 | Lymphocytes, % in blood ([7]; scheme 1, 4 Times, Day 4): 39.0 ± 2.9% | Lymphocytes (absolute) in blood ([7]; scheme 1, 4 Times, Day 7): 1025 | Lymphocytes, % in blood ([7]; scheme 1, 4 Times, Day 7): 25.6 ± 3.7% | Lymphocytes (absolute) in blood ([7]; scheme 1, 4 Times, Day 10): 1475 | Lymphocytes, % in blood ([7]; scheme 1, 4 Times, Day 10): 30.7 ± 6.5% | Lymphocytes (absolute) in blood ([7]; scheme 1, 4 Times, Day 16): 2847 | Lymphocytes, % in blood ([7]; scheme 1, 4 Times, Day 16): 38.5 ± 1.40%

Source: patent publication US6159940A, “Method for modulating hemopoiesis” (Immunotech Developments Inc., priority 1999, dated 2000)
